Data on five compounds can be found in patent publication US11103489B2, “Drug for preventing or treating inflammatory bowel disease” (NATIONAL UNIVERSITY CORPORATION OKAYAMA UNIVERSITY, priority 2015, dated 2021).

“Also recorded” adds a separate entry of the source. Some results are limits rather than exact numbers.

For data set [1], the system named is DSS colitis model mice. In words: DSS (2% aqueous solution) colitis model mice, drug efficacy and side effects (3). The data set is classed as in vivo, C57BL/6 mice. The settings on record: 2% DSS. As to the method: (§1) 1. Six-week old (body weight: 20 g) male C57BL/6 mice were purchased and acclimated for 5 to 7 days.
(§2) 2. An average weight was mated between groups having 5 to 6 animals.
(§3) 3. A DSS untreated group (normal) had free access to mineral water filtered through a […] membrane filter. A DSS […] group (vehicle and drug group) had free access to mineral water containing 2% dextran sulfate sodium (DSS) filtered through a […] membrane filter for 6 days and then mineral water filtered through a 0.22 μM membrane filter.
(§4) 4. After initiation of free access to DSS-containing water, a body weight was measured every day and then an evaluated drug was orally administered.
(§5) 6. An orally administered solution was prepared by dissolving the drug in ethanol to a final concentration of 1% and suspending the solution in a 0.5% solution of carboxymethylcellulose (CMC).
(§6) 7. The drug was administered for 11 days, and the next day, a mouse was euthanized followed by blood collection and dissection. A large intestine and a spleen were isolated. A large intestine length was measured and photographs of the large intestine and the spleen were taken. A section of the large intestine was taken and photographed.

Data set [2] concerns DSS colitis model mice. Briefly: DSS (2% aqueous solution) colitis model mice, drug efficacy and side effects (1). The data set is classed as in vivo, C57BL/6 mice. On the procedure:
as §1, §2, §3, §4, §5, §6
8. The collected blood was heparinized to give plasma, which was used for determining a blood triglyceride (TG).

For data set [3] the following is noted: cited from earlier work.
A short description of data set [4]: Measurement of a drug concentration in a large intestine. Format: in vivo, ICR mice. The settings on record: the next day after 3 day administration. On the procedure:
1. The next day of the last medication (day 3 of medication), a mouse used in Example 2 was euthanized with ether and then a large intestine was excised.
2. Faces were removed from the removed large intestine and the inside of the large intestine was washed with PBS. Excess water was removed with Kimwipes.
3. About 200 mg of the above large intestine was precisely placed in a 2 mL Eppendorf tube.
4. To the Eppendorf tube was added 800 μL of HPLC-grade methanol, and the mixture was pulverized by a homogenizer. Methanol was further added such that the total volume of methanol added became five times as much as the volume of the large intestine.
5. The mixture was ultrasonic-extracted for 20 min.
6. After the extraction, the extract was centrifuged at 4° C. and 1,500×g for 20 min.
7. After the centrifugation, about 1 mL of the supernatant was filtered through a syringe filter and poured into a 2 mL Eppendorf tube.
9. Since extraction with […] of methanol was conducted assuming that 200 mg of the above […] corresponded to 200 μL, a concentration in a large intestine was estimated by multiplying the concentration in methanol determined by LC/MS by 5.

Data set [5] concerns DSS colitis model mice. In words: DSS (3% aqueous solution) colitis model mice, drug efficacy and side effects (2). The data set is classed as in vivo, C57BL/6 mice. To be noted: 3% DSS. As to the method:
as §1, §2
3. A DSS untreated group (normal) had free access to mineral water filtered through a […] membrane filter. […]
as §4, §5, §6

The nature of data set [6]: Measurement of a drug concentration in feces. The data set is classed as in vivo, ICR mice. To be noted: for concentration in feces: oral gavage. As to the method: 1. For each treated group, four six-week old male ICR mice (body weight: 35 to 40 g) were used.
2. An orally-administered solution was prepared by dissolving it in ethanol to a final concentration of 1% and suspending the solution in a 0.5% solution of carboxymethylcellulose (CMC).
3. Each mouse was housed in a cage and had free access to feed and water.
4. After a body weight was measured at 10 a.m., the animal was gavaged with an evaluated drug via a feeding tube.
5. From the next day, feces in each cage were collected for 3 days.
6. Hundred milligrams of the feces were dried under vacuum at 40° C. and pulverized in a mortar. Then, 1.5 mL of HPLC-grade methanol was added, followed by ultrasonic extraction for 20 min.
7. After the extraction, the mixture was centrifuged at 4° C. and 1,500×g for 20 min.
8. After the centrifugation, 1 mL of the supernatant was filtered through a syringe filter and poured into a 2 mL Eppendorf tube.
9. […] The concentration was converted to a concentration per 100 mg of feces.
10. Since extraction with 1.5 mL of methanol was conducted assuming that 100 mg of the above feces corresponded to 100 μL, a concentration in feces was estimated by multiplying the concentration in methanol determined by LC/MS by […].

Data set [7] is described as follows: Measurement of a blood concentration of a drug after oral administration. The data set is classed as in vivo, ICR mice. To be noted: single oral dose of 3 mg/kg; at any time (0, 1, 3, 6 h); plasma. As to the method: 1. Six-week old male ICR mice (body weight: 15 to 25 g) were fasted from the evening of the day before the experiment, and a compound solution prepared in [2] below at a volume of 10 mL/kg was orally administered via a stomach tube. At 0, 1, 3, and 6 hours after the administration, the animals were anesthetized with ether, and incised the abdomen to collect blood from a large vein. The blood was transferred into a heparinized tube and centrifuged at 5000 rpm for 5 minutes, to collect 100 μL of plasma. Each treated group had five mice.
2. A dose of the compound was 30, 3, 0.3 mg/kg per an animal. A dosage form of the compound was prepared by dissolving it in ethanol to a final concentration of 1% and suspending the solution in a 0.5% solution of carboxymethylcellulose (CMC).
3. To 100 μL of the plasma were added 100 μL of an ammonium acetate buffer (prepared by adding acetic acid to 5 mM of ammonium acetate and adjusting a pH to 5), and then 1 mL of ethyl acetate. The mixture was vortexed for 30 min, allowed to stand at room temperature for 10 min and centrifuged for 30 sec to remove 800 μL of a supernatant, which was then concentrated by a centrifugal evaporator. The residue was stored at −20° C.
4. […] Then, for 20 μL of the sample, a compound concentration was determined by HPLC or LCMS. […]

In a further data set the test system is Raw264.7 cells. Briefly: Inhibitory effect on LPS-stimulated NO production (Griess assay). The settings on record: LPS 100 ng/mL; for LPS-stimulated NO production: 48 hours; for NO-production inhibitory effect in combination with RU486 (GR antagonist): combined with 1 μM of RU486. A general note: Nitrite, measured by Griess reagent, commonly stands in for NO production.

In a further data set the test system is RXR. To be noted: cited from earlier work.
The mark [8] stands for this setting: 2% DSS, oral 100 mg/kg/day, 11 days.
The mark [9] stands for this setting: 2% DSS, repeated oral dosing at 10 mg/kg/day, in comparison with bexarotene.

Take `O=C(O)c1cc(/N=N/c2ccc(S(=O)(=O)Nc3ccccn3)cc2)ccc1O` [SASP, salazosulfapyridine, reference compound]: in the data set on DSS colitis model mice [1] (oral 200 mg×2/kg/day), the “weight change, improvement effect compared with a vehicle” value is “did not exhibit improvement effect”.
For the compound `Nc1ccc(O)c(C(=O)O)c1` [5-Aminosalicylic acid, 5-aminosalicylic acid, reference compound], in the data set with DSS colitis model mice [2] (setting [8]), the “improvement in body weight reduction” value is recorded as “did not contribute to improvement in body weight reduction” and the “recovery of a large intestine length” value is “did not contribute”.
For `CCN(c1ccc(C(C)C)c(OCC(C)C)c1)c1ccc(C(=O)O)cn1` [NEt-3IB], the “absorption in oral administration” value in [3] (reported) was “poorly absorbed”. The “enlarged liver or increase in triglyceride” value in [3] (reportedly, in contrast to a conventional RXR full agonist) is given as “does not cause an enlarged liver or increase in triglyceride”. Also, the “concentration in a large intestine” value in data set [4] amounted to 0.0027 ± 0.0003 µM. Besides, in the data set with DSS colitis model mice [5] (oral 10 mg/kg/day), the “inhibition of body weight reduction” value is on record as “prominent inhibition of body weight reduction”. Further, the “recovery of a large intestine length” value in the data set on DSS colitis model mice [5] (oral 10 mg/kg/day) and in the data set on DSS colitis model mice [2] (setting [9]) was “recovery of a large intestine length” throughout. In addition, the “increase in the concentration in feces by repeated administration” value in [6] (3 day oral administration) is on record as “increase in the concentration by repeated administration was not found”. For the same compound, the concentration in feces in data set [6] (Day 1) turned out to be 40 ± 6 µM; in [6] (Day 2) it was 33 ± 4 µM; in data set [6] (Day 3), 22 ± 1 µM. Further, in the data set with DSS colitis model mice [1] (oral 10 mg/kg/day), the weight change result is reported as “inhibited body weight reduction”. Also, the “improvement in body weight reduction” value with DSS colitis model mice [2] (setting [9]) is listed as “prominent improvement in body weight reduction”. For the same compound, the “blood triglyceride (TG)” value in the data set on DSS colitis model mice [2] (2% DSS, repeated oral dosing, compared with bexarotene) is recorded as “inhibited increase in blood TG; also recorded: increase in a blood triglyceride by the agent was reduced”. In the data set with DSS colitis model mice [2] (repetitive oral administration, 1 mg/kg/day), the “anti-inflammatory effect on DSS enteritis” value is on record as “prominent anti-inflammatory effect”. The compound also showed a blood concentration in data set [7] of less than 0.1 µM. In addition, the “LPS-stimulated NO production” value in the data set on Raw264.7 cells is “inhibited”. Moreover, the “NO-production inhibitory effect in combination with RU486 (GR antagonist)” value with Raw264.7 cells is on record as “not inhibited”.
As for `C[C@]12C=CC(=O)C=C1CC[C@@H]1[C@@H]2[C@@H](O)C[C@@]2(C)[C@H]1CC[C@]2(O)C(=O)CO` [Prednisolone, prednisolone, reference compound], the anti-inflammatory effect entry in the data set on DSS colitis model mice [5] (oral administration at 10 mg/kg/day) is given as “did not exhibit anti-inflammatory effect”. In the data set on Raw264.7 cells, the “LPS-stimulated NO production” value is “inhibited” and the “NO-production inhibitory effect in combination with RU486 (GR antagonist)” value was “inhibited by combination use of RU486”.
For the compound `CCN(c1ccc(C(C)C)c(OCCOC)c1)c1ccc(C(=O)O)cn1` [NEt-3ME], the “effect relative to NEt-3IB” value in the data set on DSS colitis model mice [1] (at a dose three times as much as NEt-3IB (30 vs 10 mg/kg/day)) was “comparable to NEt-3IB”. In addition, in the data set on DSS colitis model mice [1] (oral 30 mg/kg/day), the weight change entry is “inhibited body weight reduction”. For the same compound, in the data set with RXR, the “RXR receptor activation potency relative to NEt-3IB” value is given as “less receptor activation potency than NEt-3IB”.
